Measurements from patent US20260159512A1, “BCAT2 INHIBITORS” (AGIOS PHARMACEUTICALS, INC., priority 2021, published 2026).
Values joined by “and” are separate entries in the source; they are usually repeats but may differ in a detail not shown here. Equal entries are not always repeated.

Tests used:
Conditions in all cases: average where tested multiple times
BCAT2 [1] = target: T1, BCAT2 (Homo sapiens, UniProt O15382); experiment: BCAT2 in vitro enzyme inhibition assay (resazurin/diaphorase-coupled fluorescence); format: biochemical
T1 sequence (O15382 28-392): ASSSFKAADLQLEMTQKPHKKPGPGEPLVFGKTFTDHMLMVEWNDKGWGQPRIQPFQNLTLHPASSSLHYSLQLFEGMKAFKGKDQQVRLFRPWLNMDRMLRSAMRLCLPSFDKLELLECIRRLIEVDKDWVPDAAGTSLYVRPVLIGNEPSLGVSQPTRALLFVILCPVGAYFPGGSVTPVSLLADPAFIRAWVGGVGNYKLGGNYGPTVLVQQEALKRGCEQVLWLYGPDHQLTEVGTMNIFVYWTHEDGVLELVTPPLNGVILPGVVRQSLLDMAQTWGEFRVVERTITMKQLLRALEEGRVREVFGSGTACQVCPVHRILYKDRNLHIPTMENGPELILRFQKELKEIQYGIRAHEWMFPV
Summary of the method: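 Coupled fluorescence readout: glutamate formed from L-leucine/α-ketoglutarate transamination drives GDH/NAD/diaphorase reduction of resazurin (Ex 540/Em 590). Human BCAT2 was first exposed 1 h at room temperature to compound, top final 100 μM in 3-fold, 10-point series; substrate reaction ran 1 h before SDS quench, in technical duplicate with DMSO max and enzyme-free min controls.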

hBCAT1 = target: T2, hBCAT1 (Homo sapiens, UniProt P54687); experiment: BCAT1 in vitro enzyme inhibition assay (resazurin/diaphorase-coupled fluorescence); format: biochemical
T2 sequence (P54687 1-386): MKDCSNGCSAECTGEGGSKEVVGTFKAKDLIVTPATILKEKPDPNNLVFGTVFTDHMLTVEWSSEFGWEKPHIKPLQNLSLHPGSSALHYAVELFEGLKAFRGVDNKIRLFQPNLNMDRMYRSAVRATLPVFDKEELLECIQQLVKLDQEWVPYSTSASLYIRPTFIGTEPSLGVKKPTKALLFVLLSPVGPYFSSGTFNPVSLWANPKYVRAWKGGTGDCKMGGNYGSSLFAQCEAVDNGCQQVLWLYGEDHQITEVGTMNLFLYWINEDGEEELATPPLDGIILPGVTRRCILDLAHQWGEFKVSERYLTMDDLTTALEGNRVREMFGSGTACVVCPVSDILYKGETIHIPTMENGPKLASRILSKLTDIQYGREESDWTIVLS
Summary of the method: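 Human BCAT1 activity read by resazurin/diaphorase-coupled fluorescence. Compounds added from 50× DMSO stocks at 1:50, giving 10-point 3-fold titrations from 100 μM top final concentration. Run in technical duplicate; repeat tests averaged.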

BCAT2 [2] = target: T1, BCAT2; experiment: BCAT2 in vitro cell inhibition using engineered A549 cells (KMV cell assay, 13C6-KMV by LC-MS/MS); format: cell-based; set-up: The result was an engineered A549 cell line that expressed endogenous BCAT2; endogenous in cells; host or cells: A549 cells with MUT and BCAT1 knocked out by CRISPR/CAS9; key to BCAT2 Cell Inhibition: A: less than or equal to 0.100 μM; B: greater than 0.100 and less than or equal to 0.500 μM; C: greater than 0.500 and less than or equal to 1.000 μM; d: greater than 1.000 μM; E: no fit

| Compound | IC50 (BCAT2 [1]) [nM] | IC50 (hBCAT1) [nM] | IC50 (BCAT2 [2]) | BCAT2 Cell Inhibition (BCAT2 [2]) |
| --- | --- | --- | --- | --- |
| O=C(N[C@H]1CCC[C@@H](n2c(-c3ncccc3F)nc3cnc(-n4nccn4)cc32)C1)c1ncc(C(F)F)s1 [Example 24, 5-(difluoromethyl)-N-((1S,3R)-3-(2-(3-fluoropyridin-2-yl)-6-(2H-1,2,3-triazol-2-yl)-1H-imidazo[4,5-c]pyridin-1-yl)cyclohexyl)thiazole-2-carboxamide] | ≤ 100 | < 500 | ≤ 100 nM |  |
| O=C(N[C@H]1CCC[C@@H](n2c(-c3ccccc3F)nc3cc(-n4nccn4)ncc32)C1)c1ncc(C(F)F)s1 [Example 148, 5-(difluoromethyl)-N-((1S,3R)-3-(2-(2-fluorophenyl)-6-(2H-1,2,3-triazol-2-yl)-3H-imidazo[4,5-c]pyridin-3-yl)cyclohexyl)thiazole-2-carboxamide] | ≤ 100 | > 5000 | > 1000 nM |  |
| O=C(N[C@@H]1C[C@@H](O)C[C@H](n2c(-c3ccccc3F)nc3cnc(-n4nccn4)cc32)C1)c1ncc(C(F)F)s1 (single isomer, unassigned) [Example 107] | 100 to 500 | < 500 | 500 to 1000 nM |  |
| CC(=O)N1CC(NC(=O)c2ccc(Br)s2)CC(n2c(-c3ccccn3)nc3ccc(-c4ncon4)cc32)C1 (stereo not drawn) [Example 286, N-(5-(6-(1,2,4-oxadiazol-3-yl)-2-(pyridin-2-yl)-1H-benzo[d]imidazol-1-yl)-1-acetylpiperidin-3-yl)-5-bromothiophene-2-carboxamide] | ≤ 100 | 1000 to 5000 | 100 to 500 nM |  |
| O=C(N[C@H]1CCC[C@@H](n2c(-c3ncccc3F)nc3cnc(-n4nccn4)cc32)C1)c1ncc(C(F)(F)F)s1 [Example 65, N-((1S,3R)-3-(2-(3-fluoropyridin-2-yl)-6-(2H-1,2,3-triazol-2-yl)-1H-imidazo[4,5-c]pyridin-1-yl)cyclohexyl)-5-(trifluoromethyl)thiazole-2-carboxamide] | ≤ 100 | 500 to 1000 | ≤ 100 nM |  |
| O=C(N[C@H]1CCC[C@@H](n2c(-c3ncccc3F)nc3cnc(-n4nccn4)cc32)C1)c1ccc(Br)s1 [Example 13, 5-bromo-N-((1S,3R)-3-(2-(3-fluoropyridin-2-yl)-6-(2H-1,2,3-triazol-2-yl)-1H-imidazo[4,5-c]pyridin-1-yl)cyclohexyl)thiophene-2-carboxamide] | ≤ 100 | < 500 | ≤ 100 nM |  |
| Cn1ccc(-c2nc3cnc(-n4nccn4)cc3n2[C@@H]2CCC[C@H](NC(=O)c3ncc(C(F)F)s3)C2)n1 [Example 41, 5-(difluoromethyl)-N-((1S,3R)-3-(2-(1-methyl-1H-pyrazol-3-yl)-6-(2H-1,2,3-triazol-2-yl)-1H-imidazo[4,5-c]pyridin-1-yl)cyclohexyl)thiazole-2-carboxamide] | 100 to 500 | > 5000 | > 1000 nM |  |
| O=C(N[C@H]1CCC[C@@H](n2c(-n3nccn3)nc3cnc(-n4nccn4)cc32)C1)c1ncc(C(F)F)s1 [Example 67, N-((1S,3R)-3-(2,6-di(2H-1,2,3-triazol-2-yl)-1H-imidazo[4,5-c]pyridin-1-yl)cyclohexyl)-5-(difluoromethyl)thiazole-2-carboxamide] | 100 to 500 | > 5000 | > 1000 nM |  |
| COC(=O)c1cnn(-c2cc3c(cn2)nc(-c2ccccn2)n3[C@@H]2CCC[C@H](NC(=O)c3ncc(C(F)F)s3)C2)n1 [Example 64, methyl 2-(1-((1R,3S)-3-(5-(difluoromethyl)thiazole-2-carboxamido)cyclohexyl)-2-(pyridin-2-yl)-1H-imidazo[4,5-c]pyridin-6-yl)-2H-1,2,3-triazole-4-carboxylate] | ≤ 100 | 1000 to 5000 | 100 to 500 nM and 500 to 1000 nM |  |
| O=C(N[C@H]1CCC[C@@H](n2c(-c3ncccc3F)nc3cnc(-c4ncco4)cc32)C1)c1ccc(Br)s1 [Example 6, 5-bromo-N-((1S,3R)-3-(2-(3-fluoropyridin-2-yl)-6-(oxazol-2-yl)-1H-imidazo[4,5-c]pyridin-1-yl)cyclohexyl)thiophene-2-carboxamide] | ≤ 100 | < 500 | ≤ 100 nM |  |
| CC(C)Cc1nc2cnc(-c3ccccn3)cc2n1[C@@H]1C[C@@H](O)C[C@H](NC(=O)c2ncc(Cl)s2)C1 (single isomer, unassigned) [Example 214] | ≤ 100 | < 500 | ≤ 100 nM |  |

More lines, now with the values ahead:

| IC50 (BCAT2 [1]) [nM] | IC50 (hBCAT1) [nM] | IC50 (BCAT2 [2]) | BCAT2 Cell Inhibition (BCAT2 [2]) | Compound |
| --- | --- | --- | --- | --- |
| ≤ 100 | < 500 | ≤ 100 nM |  | CO[C@@H]1C[C@@H](NC(=O)c2ncc(Cl)s2)C[C@@H](n2c(CC(C)C)nc3cnc(-c4nc[nH]n4)cc32)C1 (stereo in doubt) [Example 414, 5-chloro-N-((1S,3R,5R)-3-(2-isobutyl-6-(1H-1,2,4-triazol-3-yl)-1H-imidazo[4,5-c]pyridin-1-yl)-5-methoxycyclohexyl)thiazole-2-carboxamide] |
| 100 to 500 | 1000 to 5000 |  | E | CC(C)Cc1nc2cnc(-c3cc4ccccc4o3)cc2n1[C@@H]1CCC[C@H](NC(=O)c2ncc(Cl)s2)C1 [Example 320, N-((1S,3R)-3-(6-(benzofuran-2-yl)-2-isobutyl-1H-imidazo[4,5-c]pyridin-1-yl)cyclohexyl)-5-chlorothiazole-2-carboxamide] |
| 100 to 500 | > 5000 |  | E | CNC(=O)c1ccc2c(c1)nc(-c1ccccn1)n2C1CC(NC(=O)c2ccc(Br)s2)CN(C(C)=O)C1 (stereo not drawn) [Example 287, 1-(1-acetyl-5-(5-bromothiophene-2-carboxamido)piperidin-3-yl)-N-methyl-2-(pyridin-2-yl)-1H-benzo[d]imidazole-5-carboxamide] |
| ≤ 100 | < 500 | ≤ 100 nM |  | CC(C)Cc1nc2cnc(-c3nc[nH]n3)cc2n1[C@@H]1CCC[C@H](NC(=O)c2ccc(Cl)s2)[C@H]1O [Example 401, 5-chloro-N-((1S,2R,3R)-2-hydroxy-3-(2-isobutyl-6-(1H-1,2,4-triazol-3-yl)-1H-imidazo[4,5-c]pyridin-1-yl)cyclohexyl)thiophene-2-carboxamide] |
| ≤ 100 | < 500 | ≤ 100 nM |  | O=C(N[C@H]1CCCN(n2c(-c3ccccc3F)nc3cnc(-c4nc[nH]n4)cc32)C1)c1ncc(Cl)s1 [Example 364, (S)-5-chloro-N-(1-(2-(2-fluorophenyl)-6-(1H-1,2,4-triazol-3-yl)-1H-imidazo[4,5-c]pyridin-1-yl)piperidin-3-yl)thiazole-2-carboxamide] |
| ≤ 100 | < 500 | ≤ 100 nM |  | O=C(N[C@H]1CCC[C@@H](n2c(-c3ccccc3O)nc3cnc(-c4nc[nH]n4)cc32)C1)c1ncc(Cl)s1 [Example 340, 5-chloro-N-((1S,3R)-3-(2-(2-hydroxyphenyl)-6-(1H-1,2,4-triazol-3-yl)-1H-imidazo[4,5-c]pyridin-1-yl)cyclohexyl)thiazole-2-carboxamide] |
| ≤ 100 | < 500 | 100 to 500 nM |  | CC(C)Cc1nc2cnc(-c3ccccn3)cc2n1[C@@H]1CCC[C@H](NC(=O)c2ncc(Cl)s2)C1 [Example 303, 5-chloro-N-((1S,3R)-3-(2-isobutyl-6-(pyridin-2-yl)-1H-imidazo[4,5-c]pyridin-1-yl)cyclohexyl)thiazole-2-carboxamide] |
| ≤ 100 | 1000 to 5000 | 100 to 500 nM |  | CC(C)(C)Cc1nc2cnc(-c3ccccn3)cc2n1[C@@H]1CCC[C@H](NC(=O)c2ncc(Cl)s2)C1 [Example 381, 5-chloro-N-((1S,3R)-3-(2-neopentyl-6-(pyridin-2-yl)-1H-imidazo[4,5-c]pyridin-1-yl)cyclohexyl)thiazole-2-carboxamide] |
| 100 to 500 | 1000 to 5000 | > 1000 nM |  | CC(C)Cc1nc2cnc(-c3cccc(C#N)n3)cc2n1[C@@H]1CCC[C@H](NC(=O)c2ncc(Cl)s2)[C@H]1O [Example 392, 5-chloro-N-((1S,2R,3R)-3-(6-(6-cyanopyridin-2-yl)-2-isobutyl-1H-imidazo[4,5-c]pyridin-1-yl)-2-hydroxycyclohexyl)thiazole-2-carboxamide] |
